Earlier results, collected in patent US10450317B2, “Notch pathway signaling inhibitor compounds” (Eli Lilly and Company, priority 2015, dated 2019).

Key:
[1] = systemic administration; cited from earlier work
[2] = system: auditory hair cells; details: middle ear delivery, mice with acoustic trauma; cited from earlier work

SMILES: C[C@H](NC(=O)[C@@H](O)c1cc(F)cc(F)c1)C(=O)N[C@@H]1C(=O)N(C)c2ccccc2-c2ccccc21 [LY411575]
- toxicity [1]: Dose limiting toxicity was shown
- hearing recovery by regeneration of auditory hair cells [2]: significant, measurable, hearing recovery
